Reference: US20060205771A1, “Caspase inhibitors as anticancer agents” (priority 2002, published 2006)
*: point of attachment. Cbz = O=C(OCc1ccccc1)*; CH2F = FC*

Legend:
[1] = test system: normal astrocytes; assay: BCNU cytotoxicity on normal astrocytes; format: cell-based; conditions: agent alone, FIG. 8
Protocol: (§1) A variety of cells were exposed to BCNU (also known as carmustine) in the presence of a variety of caspase inhibitors. This alkylating agent is frequently employed in the treatment of cancers of the central nervous system, as well as for treatment of certain lymphomas. The growth of tumor cells and normal human brain precursor cells in chemically-defined medium was assayed under various conditions of alkylating agent and/or caspase inhibitor. Cells were exposed to BCNU at varying dosages, depending upon the outcome of characterization of their sensitivity to BCNU. In general, dosages were employed for which it would be possible to recognize protection from the cytotoxic effects of this alkylating agent, as well as to recognize increased anticancer activity depending on the conditions, of for example, the caspase inhibitor and the activity of this compound.

[2] = test system: UT-9 astrocytoma cell line; assay: survival of UT-9 astrocytoma cell line (MTT/DAPI count); format: cell-based; conditions: BCNU alone at doses equivalent to those used for 1789 and UT-12, FIG. 5
Protocol: as §1
(§2) After 24 hours, cells were pretreated for 1 hour with caspase inhibitors at a concentration of 20 microM, following exposure to BCNU for 1 hour at concentrations that would kill approximately 50% of the tumor cells, as determined by dose-response experiments. In general, the BCNU concentration applied ranged from 5 microg/ml to 20 microg/ml. Exposure periods were based upon the known clearance rate of BCNU in vivo. […] Percentages of cell survival were normalized to controls. All experiments were performed at least as quadruplicates. […]

[3] = test system: NIH3T3 cells; conditions: cited from earlier work
[4] = test system: UT-12 glioblastoma cell line; assay: survival of UT-12 glioblastoma cell line (MTT/DAPI count); format: cell-based; conditions: UT-12 glioma cells; FIG. 6
Protocol: as §1, §2

[5] = test system: SW480 colon cancer cells; assay: cisplatin-induced death of SW480 colon cancer cells; format: cell-based; conditions: cisplatin alone, FIG. 10
[6] = biological target: T1, Caspase-1 (Homo sapiens, UniProt P29466); conditions: cited from earlier work
T1 sequence (P29466 120-297 limits assumed): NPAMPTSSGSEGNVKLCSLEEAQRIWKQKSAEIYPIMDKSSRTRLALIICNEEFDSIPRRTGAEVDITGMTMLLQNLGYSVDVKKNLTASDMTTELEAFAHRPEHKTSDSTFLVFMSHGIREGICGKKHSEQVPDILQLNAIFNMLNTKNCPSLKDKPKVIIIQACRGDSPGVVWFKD
T1 sequence (P29466 317-404 limits assumed): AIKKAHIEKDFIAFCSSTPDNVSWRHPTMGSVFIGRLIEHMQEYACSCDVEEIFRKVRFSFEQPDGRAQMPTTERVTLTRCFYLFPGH

[7] = test system: SW480 (colon adenocarcinoma); conditions: SW480 cell line; cited from earlier work
[8] = test system: human liver cells; conditions: cited from earlier work
[9] = test system: H460 (non-small cell lung cancer); conditions: H460 cell line; cited from earlier work
[10] = biological target: T2, caspase-3 (Homo sapiens, UniProt P42574); conditions: cited from earlier work
T2 sequence (P42574 29-175 limits assumed): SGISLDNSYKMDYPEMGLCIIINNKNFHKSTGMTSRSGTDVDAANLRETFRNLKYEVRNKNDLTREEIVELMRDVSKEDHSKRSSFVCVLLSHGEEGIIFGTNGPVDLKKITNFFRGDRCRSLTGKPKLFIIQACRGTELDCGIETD
T2 sequence (P42574 176-277 limits assumed): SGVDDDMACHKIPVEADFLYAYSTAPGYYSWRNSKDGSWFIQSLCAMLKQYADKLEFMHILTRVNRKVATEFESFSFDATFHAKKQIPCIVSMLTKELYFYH

O=NN(CCCl)C(=O)NCCCl [BCNU, carmustine]
killing of astrocytes [1]: Astrocytes were killed by BCNU | reduction in cell number [2]: causes only a minor reduction in cell number

COc1ccc(O)c(C(C)(C)C)c1 [BHA, butylated hydroxyanisole]
protection from cytotoxicity of tumor necrosis factor plus caspase-8 inhibition ([3]; pretreatment, Luschen et al.): protected NIH3T3 cells from cytotoxicity induced by the combination of tumor necrosis factor and caspase-8 inhibition

O=C1O[C@H]([C@@H](O)CO)C(O)=C1O [Vitamin C, ascoribic acid]
cell killing by the full combination (caspase 9 and pan-caspase inhibition, BCNU, Vitamin C) [4]: kills all of the UT-12 glioma cells

N.N.[Cl][Pt][Cl] [cisplatin, Cisplatin]
cell death / reduction in number of cells [5]: cisplatin-induced death

Ac-YVAD-CHO
inhibition of Caspase-1 [6]: strong inhibitor of Caspase-1

Cbz-LEHD-CH2F
protection from TRAIL induced death [7]: did not protect | protection from TRAIL-associated toxicity [8]: effectively protects liver cells from TRAIL-associated toxicity | protection from TRAIL induced death [9]: did not protect

TRAIL: tumor necrosis factor-related apoptosis-inducing ligand
induction of cell death [8]: induces cell death in human liver cells by a caspase-9 dependent mechanism

c-DEVD-CHO
inhibition of caspase-3 [10]: inhibits preferentially (but not specifically) caspase-3

zVAD.fmk
sensitization to the action of TNF ([3]; Luschen et al, 2000): Sensitization to the action of TNF
